Results reported in ChEMBL document CHEMBL4311982, “Discovery of novel, potent, isosteviol-based antithrombotic agents” (Eur J Med Chem, 2019).

Assays:
[1] = Cmax in Wistar rat at 22 umol/kg, po measured upto 24 hrs by LC-MS/MS analysis; type: ADME, organism-based; design: dose 22 umol/kg, route oral; conditions: in vivo
Coagulation factor X = Coagulation factor X (Homo sapiens, UniProt P00742); experiment: Inhibition of human activated Factor X using S-2765 as substrate incubated for 15 mins followed by substrate addition and measured after 1 hr by chromogenic assay
Coagulation factor XI = Coagulation factor XI (Homo sapiens, UniProt P03951); experiment: Inhibition of human activated Factor XI using S-2366 as substrate incubated for 15 mins followed by substrate addition and measured after 1 hr by chromogenic assay
Coagulation factor VII = target: T1, Coagulation factor VII (Homo sapiens, UniProt P08709); experiment: Inhibition of human activated Factor VII using S-2288 as substrate incubated for 15 mins followed by substrate addition and measured after 1 hr by chromogenic assay
T1 sequence (P08709 whole entry): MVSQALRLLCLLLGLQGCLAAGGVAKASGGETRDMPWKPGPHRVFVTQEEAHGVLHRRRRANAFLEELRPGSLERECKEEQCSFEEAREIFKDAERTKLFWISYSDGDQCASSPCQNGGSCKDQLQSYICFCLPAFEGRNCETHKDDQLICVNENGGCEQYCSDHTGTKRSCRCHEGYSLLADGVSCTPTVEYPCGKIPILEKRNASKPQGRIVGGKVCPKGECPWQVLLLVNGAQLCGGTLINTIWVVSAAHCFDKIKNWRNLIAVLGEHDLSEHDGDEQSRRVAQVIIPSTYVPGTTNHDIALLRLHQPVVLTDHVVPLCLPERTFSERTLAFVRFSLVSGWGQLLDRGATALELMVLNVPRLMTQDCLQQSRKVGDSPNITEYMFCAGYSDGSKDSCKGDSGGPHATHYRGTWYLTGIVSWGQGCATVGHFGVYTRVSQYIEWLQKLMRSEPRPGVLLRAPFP

Coagulation factor XII = target: T2, Coagulation factor XII (Homo sapiens, UniProt P00748); experiment: Inhibition of human activated Factor XII using spectrozyme F XIIa as substrate incubated for 15 mins followed by substrate addition and measured after 1 hr by chromogenic assay
T2 sequence (P00748 whole entry): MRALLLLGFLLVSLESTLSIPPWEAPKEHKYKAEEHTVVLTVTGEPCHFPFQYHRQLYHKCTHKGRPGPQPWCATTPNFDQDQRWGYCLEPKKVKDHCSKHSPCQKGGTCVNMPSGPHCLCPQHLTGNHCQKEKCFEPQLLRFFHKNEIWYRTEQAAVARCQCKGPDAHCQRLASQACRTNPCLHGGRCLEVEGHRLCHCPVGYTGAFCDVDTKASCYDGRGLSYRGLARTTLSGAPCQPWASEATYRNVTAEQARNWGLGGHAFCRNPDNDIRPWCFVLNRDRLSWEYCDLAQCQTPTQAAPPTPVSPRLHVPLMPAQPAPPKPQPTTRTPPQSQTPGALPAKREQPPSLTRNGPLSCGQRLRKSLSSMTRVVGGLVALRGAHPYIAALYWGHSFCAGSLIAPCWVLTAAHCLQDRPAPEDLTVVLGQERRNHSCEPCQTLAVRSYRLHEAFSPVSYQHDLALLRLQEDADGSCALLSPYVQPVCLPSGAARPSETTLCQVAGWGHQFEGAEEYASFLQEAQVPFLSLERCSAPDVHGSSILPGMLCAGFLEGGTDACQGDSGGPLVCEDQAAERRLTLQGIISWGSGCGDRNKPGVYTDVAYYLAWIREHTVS

Coagulation factor IX = Coagulation factor IX (Homo sapiens, UniProt P00740); experiment: Inhibition of human activated Factor IX using spectrozyme F IXa as substrate incubated for 15 mins followed by substrate addition and measured after 1 hr by chromogenic assay
Trypsin = Trypsin (Homo sapiens, UniProt P07477+P07478+P35030); experiment: Inhibition of human trypsin using S-2222 as substrate incubated for 15 mins followed by substrate addition and measured after 1 hr by chromogenic assay; type: protein assay
[2] = target: Tissue-type plasminogen activator (Homo sapiens, UniProt P00750); experiment: Inhibition of human tPA using […] tPA substrate incubated for 15 mins followed by substrate addition and measured after 1 hr by chromogenic assay
[3] = target: Urokinase-type plasminogen activator (Homo sapiens, UniProt P00749); experiment: Inhibition of human uPA using […] uPA substrate incubated for 15 mins followed by substrate addition and measured after 1 hr by chromogenic assay
[4] = Half life in Wistar rat at 22 umol/kg, po measured upto 24 hrs by LC-MS/MS analysis; type: ADME, organism-based; conditions: in vivo
[5] = AUC (0 to infinity) in Wistar rat at 22 umol/kg, po measured upto 24 hrs by LC-MS/MS analysis; type: ADME, organism-based; design: dose 22 umol/kg, time infinity, route oral; conditions: in vivo
[6] = MRT in Wistar rat at 22 umol/kg, po measured upto 24 hrs by LC-MS/MS analysis; type: ADME, organism-based; conditions: in vivo
[7] = Clearance in Wistar rat at 22 umol/kg, po measured upto 24 hrs by LC-MS/MS analysis; type: ADME, organism-based; conditions: in vivo
[8] = Volume of distribution in Wistar rat at 22 umol/kg, po measured upto 24 hrs by LC-MS/MS analysis; type: ADME, organism-based; conditions: in vivo
[9] = Oral bioavailability in Wistar rat at 22 umol/kg measured upto 24 hrs by LC-MS/MS analysis; type: ADME, organism-based; conditions: in vivo
[10] = Half life in Wistar rat at 6.6 umol/kg, iv measured upto 24 hrs by LC-MS/MS analysis; type: ADME, organism-based; conditions: in vivo
[11] = AUC (0 to infinity) in Wistar rat at 6.6 umol/kg, iv measured upto 24 hrs by LC-MS/MS analysis; type: ADME, organism-based; design: dose 6.6 umol/kg, time infinity, route intravenous; conditions: in vivo
[12] = MRT in Wistar rat at 6.6 umol/kg, iv measured upto 24 hrs by LC-MS/MS analysis; type: ADME, organism-based; conditions: in vivo
[13] = Clearance in Wistar rat at 6.6 umol/kg, iv measured upto 24 hrs by LC-MS/MS analysis; type: ADME, organism-based; conditions: in vivo
[14] = Volume of distribution in Wistar rat at 6.6 umol/kg, iv measured upto 24 hrs by LC-MS/MS analysis; type: ADME, organism-based; conditions: in vivo
Rattus norvegicus [15] = species on record: Rattus norvegicus; also: test concentration or dose not given here
Rattus norvegicus [16] = species on record: Rattus norvegicus; remark: listed apart in the source; also: test concentration or dose not given here
Rattus norvegicus [17] = species on record: Rattus norvegicus; remark: listed apart in the source; also: test concentration or dose not given here
Plasma kallikrein = Plasma kallikrein (Homo sapiens, UniProt P03952); experiment: Inhibition of human kallikrein using S-2302 as substrate incubated for 15 mins followed by substrate addition and measured after 1 hr by chromogenic assay
[18] = target: Chymotrypsin (Rattus norvegicus); experiment: Inhibition of rat chymotrypsin using S-2586 as substrate incubated for 15 mins followed by substrate addition and measured after 1 hr by chromogenic assay

Plasma kallikrein, sequence (P03952 20-390 limits assumed): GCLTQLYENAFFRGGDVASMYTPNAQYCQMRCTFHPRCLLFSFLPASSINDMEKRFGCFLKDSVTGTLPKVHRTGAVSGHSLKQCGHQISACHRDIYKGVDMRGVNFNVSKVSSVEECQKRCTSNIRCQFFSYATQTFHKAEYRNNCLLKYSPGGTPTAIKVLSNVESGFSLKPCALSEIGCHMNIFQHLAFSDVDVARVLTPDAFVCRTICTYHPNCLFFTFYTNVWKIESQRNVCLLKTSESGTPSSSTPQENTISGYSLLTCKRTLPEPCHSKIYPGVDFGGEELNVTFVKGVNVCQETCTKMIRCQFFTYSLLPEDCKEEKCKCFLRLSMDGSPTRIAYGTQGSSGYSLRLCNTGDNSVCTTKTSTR
Plasma kallikrein, sequence (P03952 391-638 limits assumed): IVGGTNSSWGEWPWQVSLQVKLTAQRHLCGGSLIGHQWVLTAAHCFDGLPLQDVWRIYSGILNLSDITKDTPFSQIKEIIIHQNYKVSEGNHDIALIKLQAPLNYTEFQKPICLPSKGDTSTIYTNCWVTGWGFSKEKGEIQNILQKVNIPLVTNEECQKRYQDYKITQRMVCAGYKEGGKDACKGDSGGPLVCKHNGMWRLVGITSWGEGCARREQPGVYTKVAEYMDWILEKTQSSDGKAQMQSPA
Coagulation factor IX, sequence (P00740 47-191 limits assumed): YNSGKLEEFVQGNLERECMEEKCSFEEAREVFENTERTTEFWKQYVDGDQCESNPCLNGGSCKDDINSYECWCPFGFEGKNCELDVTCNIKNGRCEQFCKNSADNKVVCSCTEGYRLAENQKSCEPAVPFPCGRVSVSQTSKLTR
Coagulation factor IX, sequence (P00740 227-461 limits assumed): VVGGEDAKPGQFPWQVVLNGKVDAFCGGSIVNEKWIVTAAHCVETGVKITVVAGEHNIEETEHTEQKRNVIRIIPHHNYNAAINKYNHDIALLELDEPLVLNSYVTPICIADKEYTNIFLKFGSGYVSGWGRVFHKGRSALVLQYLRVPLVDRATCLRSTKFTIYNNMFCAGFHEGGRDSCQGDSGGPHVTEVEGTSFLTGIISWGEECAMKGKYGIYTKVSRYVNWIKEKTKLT
Coagulation factor XI, sequence (P03951 19-387 limits assumed): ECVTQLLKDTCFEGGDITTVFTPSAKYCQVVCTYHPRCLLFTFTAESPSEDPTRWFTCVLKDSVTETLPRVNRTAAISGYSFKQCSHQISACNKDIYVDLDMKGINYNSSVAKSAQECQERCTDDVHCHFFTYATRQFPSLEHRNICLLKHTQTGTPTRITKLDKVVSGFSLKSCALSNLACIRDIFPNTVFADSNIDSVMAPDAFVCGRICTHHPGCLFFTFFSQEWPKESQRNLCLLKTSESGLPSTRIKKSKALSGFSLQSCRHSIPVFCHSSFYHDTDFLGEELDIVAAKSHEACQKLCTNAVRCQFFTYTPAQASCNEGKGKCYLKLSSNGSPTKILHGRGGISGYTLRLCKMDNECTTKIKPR
Coagulation factor XI, sequence (P03951 388-625 limits assumed): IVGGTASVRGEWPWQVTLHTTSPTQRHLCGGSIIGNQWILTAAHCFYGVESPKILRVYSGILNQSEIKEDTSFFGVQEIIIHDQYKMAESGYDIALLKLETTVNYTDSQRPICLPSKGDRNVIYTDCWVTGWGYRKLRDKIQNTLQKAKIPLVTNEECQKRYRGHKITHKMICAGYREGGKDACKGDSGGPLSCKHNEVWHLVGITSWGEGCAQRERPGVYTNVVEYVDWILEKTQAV
Tissue-type plasminogen activator, sequence (P00750 whole entry): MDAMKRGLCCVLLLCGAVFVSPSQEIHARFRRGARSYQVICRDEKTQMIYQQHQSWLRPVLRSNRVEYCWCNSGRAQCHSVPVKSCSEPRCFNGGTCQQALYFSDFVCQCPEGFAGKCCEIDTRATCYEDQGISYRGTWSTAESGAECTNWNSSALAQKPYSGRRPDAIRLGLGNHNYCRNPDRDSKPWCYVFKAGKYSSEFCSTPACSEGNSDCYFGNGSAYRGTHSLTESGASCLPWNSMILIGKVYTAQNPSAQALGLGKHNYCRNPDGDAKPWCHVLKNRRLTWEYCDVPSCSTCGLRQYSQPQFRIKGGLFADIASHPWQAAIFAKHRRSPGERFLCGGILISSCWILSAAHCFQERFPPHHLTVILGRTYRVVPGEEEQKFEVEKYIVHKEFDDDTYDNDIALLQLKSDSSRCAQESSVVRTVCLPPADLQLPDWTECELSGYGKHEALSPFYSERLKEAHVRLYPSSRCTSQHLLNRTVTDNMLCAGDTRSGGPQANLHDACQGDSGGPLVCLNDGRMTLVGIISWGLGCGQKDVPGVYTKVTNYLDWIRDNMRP
Coagulation factor X, sequence (P00742 41-179 limits assumed): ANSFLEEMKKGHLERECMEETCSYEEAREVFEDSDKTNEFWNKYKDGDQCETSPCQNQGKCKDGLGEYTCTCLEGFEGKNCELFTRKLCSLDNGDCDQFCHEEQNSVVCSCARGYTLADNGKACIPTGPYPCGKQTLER
Coagulation factor X, sequence (P00742 235-488 limits assumed): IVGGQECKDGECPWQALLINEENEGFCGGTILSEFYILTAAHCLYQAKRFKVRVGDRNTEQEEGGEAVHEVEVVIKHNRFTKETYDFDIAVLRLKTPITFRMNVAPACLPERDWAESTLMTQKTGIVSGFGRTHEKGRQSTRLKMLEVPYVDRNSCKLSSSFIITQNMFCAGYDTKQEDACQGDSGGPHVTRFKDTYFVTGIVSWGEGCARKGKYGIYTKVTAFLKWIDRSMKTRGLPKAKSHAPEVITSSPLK

| SMILES | Cmax [1] [ng/mL] | Ki (Coagulation factor X) [µM] | Ki (Coagulation factor XI) [µM] | Ki (Coagulation factor VII) [µM] | Ki (Coagulation factor XII) [µM] | Ki (Coagulation factor IX) [µM] | Ki (Trypsin) [µM] | Ki [2] [µM] | Ki [3] [µM] | half-life [4] [h] | AUC(0-inf) [5] [ng·h/mL] | MRT [6] [h] | CL/F [7] [mL/min] | Vd [8] [L] | bioavailability [9] [%] | half-life [10] [h] | AUC(0-inf) [11] [ng·h/mL] | MRT [12] [h] | clearance [13] [mL/min] | Vd [14] [L] | also measured |
| --- | --- | --- | --- | --- | --- | --- | --- | --- | --- | --- | --- | --- | --- | --- | --- | --- | --- | --- | --- | --- | --- |
| CCOC(=O)[C@]1(C)CCC[C@@]2(C)[C@@H]3CC[C@@]4(C)C[C@]3(CC[C@@H]21)C/C4=N\OCC1(C)COC1 | 728 | 0.028 | 1.94 | 7.99 | 7.64 | 4.76 | 0.331 | 2.83 | 2.03 | 4.2 | 4810 | 5.6 | 35 | 12.5 | 42.7 | 3.4 | 3380 | 4.9 | 15 | 4.3 | PT (Rattus norvegicus [15]): 18.2 s; APTT (Rattus norvegicus [16]): 20.6 s; TT (Rattus norvegicus [17]): 22 min; Ki (Plasma kallikrein): 0.277 µM; Ki [18]: 12.378 µM |
| CCOC(=O)[C@]1(C)CCC[C@@]2(C)[C@@H]3CC[C@@]4(C)C[C@]3(CC[C@@H]21)C/C4=N\OCc1ccsc1 | 1250 | 0.015 | 1.7 | 11.6 | 9.29 | 19.7 | 2.13 | 3.53 | 4.43 | 3.9 | 5530 | 4.1 | 30 | 10.2 | 48.6 | 3.2 | 3410 | 4.6 | 15 | 4 | PT (Rattus norvegicus [15]): 19.1 s; APTT (Rattus norvegicus [16]): 21.3 s; TT (Rattus norvegicus [17]): 25.5 min; Ki (Plasma kallikrein): 2.21 µM; Ki [18]: 16.262 µM |
